Assay results as given in patent publication US20020137929A1, “1 - (3-heterocyclylphenyl) isothiourea, -isourea, -guanidine and -amidine herbicidal agents” (Intellectual Property Department, BASF Aktiengesellschaft, priority 1998, published 2002).

What was measured:
AMBEL (Ragweed, Common) [1] = assay: Postemergence herbicidal evaluation; type: in vivo, Ambrosia artemisifolia; settings: postemergence
Summary of the method: (§1)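 Herbicidal effect was judged by eye on a 0–9 scale covering stand, vigor, deformity, size and chlorosis, compared with controls, four to five weeks after seedlings about two weeks old were sprayed (40 psi, ~0.0156–0.500 kg/ha).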

CASOB (Sicklepod) [2] = assay: Postemergence herbicidal evaluation; type: in vivo, Cassia obtusifolia; settings: postemergence
Summary of the method: as §1

[3] = tested on: CHEAL (Lambsquarters, Common); assay: Postemergence herbicidal evaluation; type: in vivo, Chenopodium album; settings: postemergence
Summary of the method: as §1

ECHCG (Barnyardgrass) = assay: Postemergence herbicidal evaluation; type: in vivo, Echinochloa crus-galli; settings: postemergence
Summary of the method: as §1

[4] = tested on: GLXMAW (Soybean, Williams); assay: Postemergence herbicidal evaluation; type: in vivo, Glycine max, (L.) Merr. cv Williams; settings: postemergence
Summary of the method: as §1

[5] = tested on: TRZAWR (Wheat, Winter, cv Riband); assay: Postemergence herbicidal evaluation; type: in vivo, Triticum aestivum; settings: postemergence
Summary of the method: as §1

ABUTH (Velvetleaf) = assay: Preemergence herbicidal evaluation; type: in vivo, Abutilon theophrasti; settings: rated 4-5 weeks after treatment
Summary of the method: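 Seeds were mixed with potting soil and planted on about one inch of soil, then sprayed with test compound in aqueous acetone at about 0.0156 to 0.500 kg per hectare. Plants grew under standard greenhouse care and were visually rated 0-9 against untreated controls 4-5 weeks post-treatment.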

AMBEL (Ragweed, Common) [6] = assay: Preemergence herbicidal evaluation; type: in vivo, Ambrosia artemisifolia; settings: rated 4-5 weeks after treatment
Excerpt: (§2) Results of herbicide evaluation are expressed on a rating scale (0-9). The scale is based upon a visual observation of plant stand, vigor, malformation, size, chlorosis and overall plant appearance as compared with a control.
(§3) The preemergence herbicidal activity of the test compounds of the present invention is exemplified by the following tests in which the seeds of a variety of monocotyledonous and dicotyledonous plants are separately mixed with potting soil and planted on top of approximately one inch of soil in separate pint cups. After planting, the cups are sprayed with the selected aqueous acetone solution containing test compound in sufficient quantity to provide the equivalent of about 0.0156 to 0.500 kg per hectare of test compound per cup. The treated cups are then placed on greenhouse benches, watered and cared for in accordance with conventional greenhouse procedures. From four to five weeks after treatment, the tests are terminated and each cup is examined and rated according to the rating system provided in Example 37.
(§4) The compounds evaluated are reported by compound number given in Example 37.

CASOB (Sicklepod) [7] = assay: Preemergence herbicidal evaluation; type: in vivo, Cassia obtusifolia; settings: rated 4-5 weeks after treatment
Excerpt: as §2, §3, §4

[8] = tested on: CHEAL (Lambsquarters, Common); assay: Preemergence herbicidal evaluation; type: in vivo, Chenopodium album; settings: rated 4-5 weeks after treatment
Excerpt: as §2, §3, §4

[9] = tested on: GLXMAW (Soybean, Williams); assay: Preemergence herbicidal evaluation; type: in vivo, Glycine max, (L.) Merr. cv Williams; settings: rated 4-5 weeks after treatment
Excerpt: as §2, §3, §4

ORYSAT (Rice, Tebonnet) = assay: Preemergence herbicidal evaluation; type: in vivo, Oryza sativa, (L.) Tebonnet; settings: rated 4-5 weeks after treatment
Excerpt: as §2, §3, §4

MOOVA (Monochoria) = assay: Preemergence weed control under flooded paddy conditions; type: in vivo, Monochoria vaginalis; settings: rated 3-4 weeks after treatment
Summary of the method: (§5)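 Seeds or propagules sown in silt loam kept flooded 1.5-3 cm; compounds in 50/50 acetone/water pipetted into flood water at about 0.0313 to 0.500 kg/ha. Greenhouse; visual 0-9 rating versus untreated control 3-4 weeks after treatment.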

[10] = tested on: SAGPY (Arrowhead (Pygmaea)); assay: as above; type: in vivo, Sagittaria pygmaea; settings: rated 3-4 weeks after treatment
Summary of the method: as §5

For `CN1C(=O)CSC1=Nc1cc(N2C(=O)C3=C(CCCC3)C2=O)c(F)cc1Cl` [Compound 1, N-{4-chloro-2-fluoro-5-[(3-methyl-4-oxo-2-thiazolidinylidene)amino]phenyl}-1-cyclohexene-1,2-dicarboximide], which AMBEL herbicidal rating (AMBEL (Ragweed, Common) [1]; rate 0.0157 kg/ha) is on record?
Its AMBEL herbicidal rating is 2.0.

And the AMBEL herbicidal rating (AMBEL (Ragweed, Common) [1]; rate 0.0313 kg/ha)?
Its AMBEL herbicidal rating is 3.0.

What about the AMBEL herbicidal rating (AMBEL (Ragweed, Common) [1]; rate 0.0625 kg/ha) of the same molecule?
The AMBEL herbicidal rating was 3.0.

And the AMBEL herbicidal rating (AMBEL (Ragweed, Common) [1]; rate 0.1250 kg/ha)?
Its AMBEL herbicidal rating is 5.0.

And the AMBEL herbicidal rating (AMBEL (Ragweed, Common) [1]; rate 0.2500 kg/ha)?
Its AMBEL herbicidal rating is 7.0.

And the AMBEL herbicidal rating (AMBEL (Ragweed, Common) [1]; rate 0.5000 kg/ha)?
Its AMBEL herbicidal rating is 8.0.

And the CASOB herbicidal rating (CASOB (Sicklepod) [2]; rate 0.0157 kg/ha)?
The CASOB herbicidal rating was 0.0.

What about the CASOB herbicidal rating (CASOB (Sicklepod) [2]; rate 0.0313 kg/ha) of the same molecule?
Its CASOB herbicidal rating is 2.0.

And the CASOB herbicidal rating (CASOB (Sicklepod) [2]; rate 0.0625 kg/ha)?
The CASOB herbicidal rating was 4.0.

What about the CASOB herbicidal rating (CASOB (Sicklepod) [2]; rate 0.1250 kg/ha) of the same molecule?
Its CASOB herbicidal rating is 4.0.

And the CASOB herbicidal rating (CASOB (Sicklepod) [2]; rate 0.2500 kg/ha)?
The CASOB herbicidal rating was 6.0.

And the CASOB herbicidal rating (CASOB (Sicklepod) [2]; rate 0.5000 kg/ha)?
The CASOB herbicidal rating was 7.0.

What about the CHEAL herbicidal rating ([3]; rate 0.0157 kg/ha) of the same molecule?
The CHEAL herbicidal rating was 6.0.

What about the CHEAL herbicidal rating ([3]; rate 0.0313 kg/ha) of the same molecule?
The CHEAL herbicidal rating was 7.0.

What about the CHEAL herbicidal rating ([3]; rate 0.0625 kg/ha) of the same molecule?
Its CHEAL herbicidal rating is 7.0.

And the CHEAL herbicidal rating ([3]; rate 0.1250 kg/ha)?
The CHEAL herbicidal rating was 9.0.

What about the CHEAL herbicidal rating ([3]; rate 0.2500 kg/ha) of the same molecule?
Its CHEAL herbicidal rating is 9.0.

And the CHEAL herbicidal rating ([3]; rate 0.5000 kg/ha)?
The CHEAL herbicidal rating was 9.0.

And the ECHCG herbicidal rating (ECHCG (Barnyardgrass); rate 0.0157 kg/ha)?
The ECHCG herbicidal rating was 0.0.

And the ECHCG herbicidal rating (ECHCG (Barnyardgrass); rate 0.0313 kg/ha)?
Its ECHCG herbicidal rating is 0.0.

And the ECHCG herbicidal rating (ECHCG (Barnyardgrass); rate 0.0625 kg/ha)?
Its ECHCG herbicidal rating is 2.0.

What about the ECHCG herbicidal rating (ECHCG (Barnyardgrass); rate 0.1250 kg/ha) of the same molecule?
Its ECHCG herbicidal rating is 2.0.

And the ECHCG herbicidal rating (ECHCG (Barnyardgrass); rate 0.2500 kg/ha)?
The ECHCG herbicidal rating was 5.0.

And the ECHCG herbicidal rating (ECHCG (Barnyardgrass); rate 0.5000 kg/ha)?
Its ECHCG herbicidal rating is 7.0.

What about the GLXMAW herbicidal rating ([4]; rate 0.0157 kg/ha) of the same molecule?
Its GLXMAW herbicidal rating is 4.0.

What about the GLXMAW herbicidal rating ([4]; rate 0.0313 kg/ha) of the same molecule?
Its GLXMAW herbicidal rating is 4.5.

What about the GLXMAW herbicidal rating ([4]; rate 0.0625 kg/ha) of the same molecule?
Its GLXMAW herbicidal rating is 4.5.

And the GLXMAW herbicidal rating ([4]; rate 0.1250 kg/ha)?
The GLXMAW herbicidal rating was 5.0.

And the GLXMAW herbicidal rating ([4]; rate 0.2500 kg/ha)?
The GLXMAW herbicidal rating was 5.5.

What about the GLXMAW herbicidal rating ([4]; rate 0.5000 kg/ha) of the same molecule?
The GLXMAW herbicidal rating was 6.0.

And the TRZAWR herbicidal rating ([5]; rate 0.0157 kg/ha)?
The TRZAWR herbicidal rating was 2.5.

What about the TRZAWR herbicidal rating ([5]; rate 0.0313 kg/ha) of the same molecule?
The TRZAWR herbicidal rating was 3.5.

What about the TRZAWR herbicidal rating ([5]; rate 0.0625 kg/ha) of the same molecule?
Its TRZAWR herbicidal rating is 4.0.

What about the TRZAWR herbicidal rating ([5]; rate 0.1250 kg/ha) of the same molecule?
Its TRZAWR herbicidal rating is 5.0.

And the TRZAWR herbicidal rating ([5]; rate 0.2500 kg/ha)?
The TRZAWR herbicidal rating was 5.5.

And the TRZAWR herbicidal rating ([5]; rate 0.5000 kg/ha)?
Its TRZAWR herbicidal rating is 6.0.

And the “ABUTH preemergence herbicidal rating” value (ABUTH (Velvetleaf); rate 0.0313 kg/ha)?
The value was 5.0.

What about the “ABUTH preemergence herbicidal rating” value (ABUTH (Velvetleaf); rate 0.0625 kg/ha) of the same molecule?
Its value is 9.0.

And the “ABUTH preemergence herbicidal rating” value (ABUTH (Velvetleaf); rate 0.1250 kg/ha)?
The value was 9.0.

And the “ABUTH preemergence herbicidal rating” value (ABUTH (Velvetleaf); rate 0.2500 kg/ha)?
Its value is 9.0.

What about the “ABUTH preemergence herbicidal rating” value (ABUTH (Velvetleaf); rate 0.5000 kg/ha) of the same molecule?
The value was 9.0.

What about the “AMBEL preemergence herbicidal rating” value (AMBEL (Ragweed, Common) [6]; rate 0.0313 kg/ha) of the same molecule?
The value was 0.0.

And the “AMBEL preemergence herbicidal rating” value (AMBEL (Ragweed, Common) [6]; rate 0.0625 kg/ha)?
The value was 2.0.

And the “AMBEL preemergence herbicidal rating” value (AMBEL (Ragweed, Common) [6]; rate 0.1250 kg/ha)?
Its value is 5.0.

What about the “AMBEL preemergence herbicidal rating” value (AMBEL (Ragweed, Common) [6]; rate 0.2500 kg/ha) of the same molecule?
Its value is 5.0.

What about the “AMBEL preemergence herbicidal rating” value (AMBEL (Ragweed, Common) [6]; rate 0.5000 kg/ha) of the same molecule?
Its value is 6.7.

And the “CASOB preemergence herbicidal rating” value (CASOB (Sicklepod) [7]; rate 0.0313 kg/ha)?
Its value is 0.0.

And the “CASOB preemergence herbicidal rating” value (CASOB (Sicklepod) [7]; rate 0.0625 kg/ha)?
Its value is 3.0.

And the “CASOB preemergence herbicidal rating” value (CASOB (Sicklepod) [7]; rate 0.1250 kg/ha)?
The value was 2.0.

And the “CASOB preemergence herbicidal rating” value (CASOB (Sicklepod) [7]; rate 0.2500 kg/ha)?
The value was 6.0.

And the “CASOB preemergence herbicidal rating” value (CASOB (Sicklepod) [7]; rate 0.5000 kg/ha)?
Its value is 6.7.

And the “CHEAL preemergence herbicidal rating” value ([8]; rate 0.0313 kg/ha)?
Its value is 9.0.

And the “CHEAL preemergence herbicidal rating” value ([8]; rate 0.0625 kg/ha)?
Its value is 9.0.

And the “CHEAL preemergence herbicidal rating” value ([8]; rate 0.1250 kg/ha)?
Its value is 9.0.

What about the “CHEAL preemergence herbicidal rating” value ([8]; rate 0.2500 kg/ha) of the same molecule?
Its value is 9.0.

What about the “CHEAL preemergence herbicidal rating” value ([8]; rate 0.5000 kg/ha) of the same molecule?
The value was 9.0.

And the “GLXMAW preemergence herbicidal rating” value ([9]; rate 0.0313 kg/ha)?
Its value is 0.0.

What about the “GLXMAW preemergence herbicidal rating” value ([9]; rate 0.0625 kg/ha) of the same molecule?
The value was 2.0.

And the “GLXMAW preemergence herbicidal rating” value ([9]; rate 0.1250 kg/ha)?
Its value is 2.0.

And the “GLXMAW preemergence herbicidal rating” value ([9]; rate 0.2500 kg/ha)?
Its value is 4.0.

And the “GLXMAW preemergence herbicidal rating” value ([9]; rate 0.5000 kg/ha)?
Its value is 3.0.

And the “ORYSAT preemergence herbicidal rating” value (ORYSAT (Rice, Tebonnet); rate 0.0313 kg/ha)?
The value was 0.0.

And the “ORYSAT preemergence herbicidal rating” value (ORYSAT (Rice, Tebonnet); rate 0.0625 kg/ha)?
Its value is 0.0.

What about the “ORYSAT preemergence herbicidal rating” value (ORYSAT (Rice, Tebonnet); rate 0.1250 kg/ha) of the same molecule?
Its value is 2.0.

What about the “ORYSAT preemergence herbicidal rating” value (ORYSAT (Rice, Tebonnet); rate 0.2500 kg/ha) of the same molecule?
Its value is 3.0.

What about the “ORYSAT preemergence herbicidal rating” value (ORYSAT (Rice, Tebonnet); rate 0.5000 kg/ha) of the same molecule?
The value was 6.0.

And the “Herbicidal rating MOOVA” value (MOOVA (Monochoria); 0.0313 kg/ha)?
The value was 8.0.

And the “Herbicidal rating MOOVA” value (MOOVA (Monochoria); 0.0625 kg/ha)?
The value was 9.0.

And the “Herbicidal rating MOOVA” value (MOOVA (Monochoria); 0.1250 kg/ha)?
Its value is 9.0.

And the “Herbicidal rating MOOVA” value (MOOVA (Monochoria); 0.2500 kg/ha)?
The value was 9.0.

What about the “Herbicidal rating MOOVA” value (MOOVA (Monochoria); 0.5000 kg/ha) of the same molecule?
The value was 9.0.

What about the “Herbicidal rating SAGPY” value ([10]; 0.0313 kg/ha) of the same molecule?
The value was 0.0.

And the “Herbicidal rating SAGPY” value ([10]; 0.0625 kg/ha)?
The value was 0.0.

And the “Herbicidal rating SAGPY” value ([10]; 0.1250 kg/ha)?
Its value is 0.0.

And the “Herbicidal rating SAGPY” value ([10]; 0.2500 kg/ha)?
Its value is 0.0.

And the “Herbicidal rating SAGPY” value ([10]; 0.5000 kg/ha)?
The value was 0.0.
